Assay results taken from patent US20200375999A1, “PHARMACEUTICAL COMBINATIONS OF EGFR INHIBITORS AND METHODS OF USE THEREOF” (DANA-FARBER CANCER INSTITUTE, INC., priority 2018, published 2020).
Like-named read-outs stand apart in the source and are kept apart here.

Experiments:
[1] = molecular target: T1, recombinant EGFR T790M/L858R kinase (Homo sapiens, UniProt P00533, L858R/T790M); assay: HTRF-based EGFR biochemical assay
T1 construct: Constructs spanning residues 696-1022 of the human EGFR; GST (cleaved yes); made in house; host or cells: Sf9 insect cells
Procedure: EGFR kinase proteins were purified by glutathione-affinity chromatography followed by size-exclusion chromatography after cleavage with TEV or thrombin to remove the GST fusion partner following established procedures. (Yun 2008; Yun 2007).
EGFR biochemical assays were carried out using a homogeneous time-resolved fluorescence (HTRF) assay as described previously. The reaction mixtures contained 1 μM biotin-Lck-peptide substrate, wild type or mutant EGFR enzyme in reaction buffer (50 mM HEPES pH 7.1, 10 mM MgCl2, 0.01% BSA. 1 mM TCEP and 0.1 mM Na3VO4) at a final volume of 10 μL. […] All reactions were carried out at room temperature in white ProxiPlate™ 384-well Plus plates (PerkinElmer) and were quenched with 5 μL of 0.2 M EDTA at 60 min. Five μL per well of the detection reagent containing 2.5 ng PT66K (Cis-bio) and 0.05 μg SAXL (Prozyme) were added, and the plates were then incubated at room temperature for 1 hour and read with an EnVision plate reader.

[2] = test system: EGFR L858R/T790M/C797S Ba/F3 cell line; assay: Ba/F3 cell proliferation (MTS assay), EGFR L858R/T790M/C797S; type: cell-based, murine
Procedure: (§1) The EGFR mutant L858R, Del E746_A750, L858R/T790M, DelE746_A750/T790M, L858R/T790M/C797S and Del/T790M/C797S Ba/F3 cells were previously described (Zhou et al., Nature 462, (2009), 1070-1074). All cell lines were maintained in RPM 1640 (Cellgro; Mediatech Inc., Herndon, Calif.) supplemented with 10% FBS 100 units/mL penicillin, 100 units/mL streptomycin, and 2 mM glutamine. L858R cells were maintained in ACL-4 media (Invitrogen, Carlsbad, Calif.) supplemented with 5% FBS, 100 units/mL penicillin, 100 units/mL streptomycin, and 2 mM glutamine. The EGFR 1941R mutation was introduced via site directed mutagenesis using the Quick Change Site-Directed Mutagenesis kit (Stratagene: La Jolla, Calif.) according to the manufacturer's instructions. All constructs were confirmed by DNA sequencing. The constructs were shuttled into the retroviral vector JP1540 using the BD Creator™ System (BD Biosciences). Ba/F3 cells were infected with retrovirus and according to standard protocols, as described previously (Zhou 2009). Stable clones were obtained by selection in puromycin (2 μg/ml).
(§2) Growth and inhibition of growth was assessed by MTS assay and was performed according to previously established methods (Zhou 2009). The MTS assay is a colorimetric method for determining the number of viable cells that is based on the bioreduction of MTS by cells to a formazan product that is soluble in cell culture medium and can be detected spectrophotometrically. Ba/F3 cells of different EGFR genotypes were exposed to treatment and the number of cells used per experiment determined empirically and has been previously established (Zhou 2009). All experimental points were set up in six wells and all experiments were repeated at least three times. […] The curves were fitted using anon-linear regression model with a sigmoidal dose response.

[3] = molecular target: T2, EGFR T790M/L858R Ba/F3 cell line (Homo sapiens, UniProt P00533, T790M/L858R, cells depend on it); assay: Ba/F3 cell proliferation (MTS assay), EGFR T790M/L858R; type: cell-based, murine
T2 construct: "The constructs were shuttled into the retroviral vector JP1540 using the BD Creator™ System (BD Biosciences)
Procedure: as §1, with “All” for “The EGFR mutant L858R, Del E746_A750, L858R/T790M, DelE746_A750/T790M, L858R/T790M/C797S and Del/T790M/C797S Ba/F3 cells were previously described (Zhou et al., Nature 462, (2009), 1070-1074). All”, “L858R cells were maintained in ACL-4 media (Invitrogen, Carlsbad, Calif.) supplemented with 5% FBS, 100 units/mL penicillin, 100 units/mL streptomycin, and 2 mM glutamine.” left out
as §2, with “Ba/F3 cells of different EGFR genotypes were exposed to treatment and the number of cells used per experiment determined empirically and has been previously established (Zhou 2009).” left out

T2 sequence (P00533 whole entry T790M/L858R): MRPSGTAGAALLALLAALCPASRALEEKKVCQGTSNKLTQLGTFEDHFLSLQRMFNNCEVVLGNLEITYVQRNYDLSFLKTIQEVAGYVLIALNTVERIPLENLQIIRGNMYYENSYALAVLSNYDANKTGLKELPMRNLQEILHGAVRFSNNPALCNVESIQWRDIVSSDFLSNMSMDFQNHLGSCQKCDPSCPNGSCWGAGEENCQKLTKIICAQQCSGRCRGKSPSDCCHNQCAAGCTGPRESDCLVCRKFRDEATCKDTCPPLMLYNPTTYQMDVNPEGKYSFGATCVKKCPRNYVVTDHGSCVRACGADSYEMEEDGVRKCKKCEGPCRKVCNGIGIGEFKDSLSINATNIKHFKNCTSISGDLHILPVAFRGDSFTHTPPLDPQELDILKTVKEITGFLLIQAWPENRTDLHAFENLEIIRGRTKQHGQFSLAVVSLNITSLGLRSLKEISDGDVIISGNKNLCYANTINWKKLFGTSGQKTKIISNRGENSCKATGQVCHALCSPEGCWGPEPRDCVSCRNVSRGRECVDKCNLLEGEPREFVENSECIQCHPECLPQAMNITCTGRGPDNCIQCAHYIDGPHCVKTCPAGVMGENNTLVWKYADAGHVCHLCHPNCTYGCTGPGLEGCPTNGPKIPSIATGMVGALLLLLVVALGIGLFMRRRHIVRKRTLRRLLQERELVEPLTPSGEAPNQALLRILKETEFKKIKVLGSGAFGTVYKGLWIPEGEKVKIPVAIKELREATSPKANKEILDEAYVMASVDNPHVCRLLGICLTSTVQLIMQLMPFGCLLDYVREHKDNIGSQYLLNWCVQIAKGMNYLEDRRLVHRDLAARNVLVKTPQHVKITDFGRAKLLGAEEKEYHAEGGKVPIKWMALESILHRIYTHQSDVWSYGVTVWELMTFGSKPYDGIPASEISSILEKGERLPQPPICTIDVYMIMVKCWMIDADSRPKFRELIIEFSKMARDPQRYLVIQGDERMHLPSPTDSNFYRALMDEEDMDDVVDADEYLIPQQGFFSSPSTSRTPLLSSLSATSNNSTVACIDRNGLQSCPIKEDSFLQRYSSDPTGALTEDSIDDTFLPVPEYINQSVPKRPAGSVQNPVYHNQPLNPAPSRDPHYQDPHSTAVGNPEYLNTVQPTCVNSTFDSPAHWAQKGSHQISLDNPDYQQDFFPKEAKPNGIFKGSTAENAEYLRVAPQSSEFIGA
T1 sequence (P00533 696-1022 T790M/L858R): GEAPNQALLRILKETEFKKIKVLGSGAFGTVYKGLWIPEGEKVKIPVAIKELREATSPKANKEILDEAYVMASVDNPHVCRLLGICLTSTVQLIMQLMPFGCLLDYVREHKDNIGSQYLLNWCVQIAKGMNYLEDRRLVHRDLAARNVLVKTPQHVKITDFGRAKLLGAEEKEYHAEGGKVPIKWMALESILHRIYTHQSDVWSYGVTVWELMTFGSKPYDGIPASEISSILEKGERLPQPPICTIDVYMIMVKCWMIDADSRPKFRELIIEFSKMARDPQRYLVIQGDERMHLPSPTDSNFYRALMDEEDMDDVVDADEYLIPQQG

IC50 [1]: < 250 nM
EC50 ([3]; absence of cetuximab, read-out: Ba/F3 cellular activity (EC50) T790M/L858R): ≥ 750 nM
Activity (% cetuximab); inhibition of proliferation ([3]; compound at 1 μM in the presence of 1 μg/mL cetuximab, EGFR T790M/L858R Ba/F3): B (25 ≤ B < 50)
Activity (% DMSO control); inhibition of proliferation ([3]; compound at 1 μM, EGFR T790M/L858R Ba/F3): D (75 ≤ D)
EC50 ([3]; read-out: Ba/F3 cellular activity (EC50) T790M/L858R + Cetuximab (1 μg/mL), presence of 1 μg/mL cetuximab): 250 to 500 nM
SMILES: O=C1c2cc(-c3ccc(N4CCNCC4)cc3)ccc2Nc2ccccc2N1Cc1ccccc1 [Compound I-11]
Activity (% cetuximab); inhibition of proliferation ([2]; compound at 1 μM in the presence of 1 μg/mL cetuximab, EGFR L858R/T790M/C797S): C (50 ≤ C < 75)
Activity (% DMSO control); inhibition of proliferation ([2]; compound at 1 μM, EGFR L858R/T790M/C797S Ba/F3): D (75 ≤ D)
